Patent US20230131899A1, “INHIBITORS OF MICROBIALLY INDUCED AMYLOID” (Axial Therapeutics, Inc., priority 2020, published 2023)
Like-named read-outs stand apart in the source and are kept apart here.

How the values were obtained:
[1] = target: T1, human α-synuclein (Homo sapiens, UniProt P37840); assay: Cell-free Thioflavin T assay of α-synuclein aggregation (αSyn ThT Assay); type: biochemical; conditions: αSyn 50 μM
T1 construct: the full-length gene for untagged human α-synuclein was inserted; made in house; host or cells: E. coli BL21(DE3), plasmid derived from pT7 or pET11a
Experimental: To assess the effects of compounds on aggregation of α-synuclein, a cell-free assay was performed using purified α-synuclein and Thioflavin T. In the assay, human α-synuclein was expressed in E. coli BL21(DE3) from a plasmid derived from pT7 or pET11a into which the full-length gene for untagged human α-synuclein was inserted. Cells were induced at OD600 0.6 with 0.8 mM IPTG for 4 hours, harvested by centrifugation and suspended in a volume of lysis buffer (10 mM Tris, pH 8.0, 1 mM EDTA, and 1 mM PMSF) equivalent to one-tenth the volume of culture and lysed by boiling for 20 minutes. Cell debris was pelleted by centrifugation, clarified lysate was treated with 10% streptomycin sulfate at 136 μL/mL followed by glacial acetic acid at 228 μL/mL, lysate was centrifuged, supernatant was transferred to a fresh tube and protein was precipitated via addition of an equal volume of saturated (100%) ammonium sulfate and incubated at 4° C. on a rocking shaker for 1 hour. The protein was pelleted via centrifugation and washed with an equal volume of 100 mM ammonium acetate in chilled ethanol, pelleted via centrifugation, washed twice with chilled ethanol, dried overnight, resuspended in 50 mM potassium phosphate buffer pH 7.3 or 10 mM Tris pH 7.4, and passed through a 50 kDa cut-off column. Immediately prior to use, the purified α-synuclein was filtered with a 0.2 μm nylon filter. The assay was conducted in 96-well black microplates with a single 1-2 mm glass bead in each well, 20-40 μM ThioflavinT, 1% DMSO, α-synuclein at 50 μM and compounds at 20-100 μM. Plates were sealed with sealing tape (ThermoFisher 232701), incubated at 37° C. in a Tecan Nano F200 plate reader with excitation at 438 nm using a 439 nm filter with a bandwidth of 8 nm, and emission at 495 nm with a 490 nm filter with a bandwidth of 10 nm. During the assay, plates were shaken continuously or were shaken for 999 seconds every 18 minutes. Readings were performed hourly for up to 73 hours. The effect of compounds on α-synuclein aggregation in the assay was determined with data at 36, 47, 48 or 72 hours or from the final timepoint of the assay, prior to or roughly near the time when ThT fluorescence plateaued in the vehicle control wells. The vehicle controls contained all components of the assay except compounds and represented the level of α-synuclein aggregation in the absence of an inhibitor or accelerator. Fluorescence values for each compound with α-synuclein were first adjusted by subtracting the average fluorescence of the compound in the absence of α-synuclein. These adjusted values were normalized by dividing them by the average fluorescence at the same timepoint in the vehicle control wells, and the average normalized fluorescence with the compound was expressed as a percentage of the average fluorescence observed in untreated controls. Percent inhibition of α-synuclein aggregation by a compound was determined by subtracting the percent average fluorescence with the compound relative to the average vehicle control from 100%. A higher positive percent inhibition reflects greater inhibition of α-synuclein aggregation, while a negative percent inhibition reflects potentiation of α-synuclein aggregation.
Alternate concentrations of Thioflavin T may be used in the assay and may affect the fluorescent signal and sensitivity of the assay. Alternate concentrations of α-synuclein may be used and such alterations may affect aggregation kinetics of α-synuclein in the assay. Alternate concentrations of compounds may be tested in the assay, and dose-responses may be evaluated. Additional reagents may be added to the assay which may affect aggregation kinetics of α-synuclein depending on their concentration, including detergents such as sodium dodecyl sulfate, sodium chloride, dithiotreitol, or bovine serum albumin. Shaking may be included at alternate intervals in the assay and may affect α-synuclein aggregation kinetics. […]

[2] = test system: CsgA gene expression (csgBAC promoter-GFP reporter) in E. coli UTI89; assay: In vitro live cell fluorescent reporter assay of CsgA transcription (Reporter Assay); type: cell-based; conditions: Escherichia coli
In short: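 Chromosomal single-copy csgBAC promoter–GFP reporter in E. coli UTI89, started at OD600 0.003 in YESCA broth with compound (0.14–100 μM, 1% DMSO), 20 h at 27 °C. GFP (ex 485/em 525 nm) background-subtracted and normalized to vehicle; IC50 and X[50] from curve fits. OD600 tracked growth effects.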

[3] = target: T2, E. coli CsgA (Escherichia coli, UniProt P28307); assay: In vitro ThioflavinT assay of CsgA aggregation (CsgA ThT Assay); type: biochemical; conditions: 1005 minutes; for remaining activity at 25 µM: compound 25 μM; for remaining activity at 100 µM: compound 100 μM
T2 construct: made in house; host or cells: E. coli NEB 3016 slyD::kan, pET11d
In short: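 Purified C-terminal His-tagged CsgA, monomerised by desalting and 30-kDa filtration, at 2-20 μM with 20-40 μM ThT in 50 mM potassium phosphate pH 7.3, 1% DMSO, compounds 3.125-200 uM; room temperature, fluorescence (ex 438/em 495 nm) read every 15 min. Background-subtracted signal expressed as percent inhibition versus vehicle at 6-6.5 or 8-9 h, or as percent control AUC.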

[4] = class symbol, compounds 100 μM, read-out: αSyn ThT Assay % inhibition, activity range
[5] = mean percent inhibition relative to DMSO control, compounds 100 μM, read-out: αSyn ThT Assay % inhibition
[6] = read-out: Reporter Assay Abs IC50 (μM), median Abs IC50 in the CsgA reporter assay, N/A = maximum expression reduction is <50% of control
[7] = read-out: Reporter Assay Abs IC50, activity range, class symbol
[8] = mean % inhibition of αSyn aggregation relative to DMSO control, compounds at 100 μM, read-out: αSyn ThT Assay % Inhibition

T2 sequence (P28307 23-151): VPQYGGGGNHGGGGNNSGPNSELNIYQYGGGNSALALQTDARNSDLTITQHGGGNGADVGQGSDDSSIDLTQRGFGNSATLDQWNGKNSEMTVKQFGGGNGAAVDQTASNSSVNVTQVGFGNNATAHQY

| Compound | inhibition at 100 µM [1, 4] [%] | inhibition at 100 µM [1, 5] [%] | IC50 [2, 6] [µM] | IC50 [2, 7] [µM] | inhibition at 100 µM [1, 8] [%] | inhibition at 100 µM ([1]; compounds at 100 μM, class symbol, read-out: αSyn ThT Assay % Inhibition (activity range)) [%] | IC50 ([2]; read-out: Reporter Assay Abs IC50 (activity range), median Abs IC50 in the CsgA reporter assay, class symbol) [µM] | remaining activity at 25 µM ([3]; read-out: CsgA ThT Assay (10 μM CsgA) % Control AUC at 1005 minutes, 25 μM (activity range), CsgA 10 μM, black plates, class symbol) [%] | remaining activity at 25 µM ([3]; read-out: CsgA ThT Assay (10 μM CsgA) % Control AUC at 1005 minutes, 25 μM, mean AUC as % of DMSO control, CsgA 10 μM, black plates) [%] | remaining activity at 100 µM ([3]; read-out: CsgA ThT Assay (10 μM CsgA) % Control AUC at 1005 minutes, 100 μM (activity range), CsgA 10 μM, black plates, class symbol) [%] | remaining activity at 100 µM ([3]; read-out: CsgA ThT Assay (10 μM CsgA) % Control AUC at 1005 minutes, 100 μM, mean AUC as % of DMSO control, CsgA 10 μM, black plates) [%] | αSyn ThT Assay % Inhibition (activity range) ([1]; compounds at 100 μM, class symbol) |
| --- | --- | --- | --- | --- | --- | --- | --- | --- | --- | --- | --- | --- |
| O=C(O)C1CN(Cc2ccccc2)c2c(-c3cccc(C(F)(F)F)c3)c(Cc3ccc(Cl)c4ccccc34)cc(=O)n21 (stereo not drawn) [Compound 232, 1-benzyl-7-((4-chloronaphthalen-1-yl)methyl)-5-oxo-8-(3-(trifluoromethyl)phenyl)-1,2,3,5-tetrahydroimidazo[1,2-a] pyridine-3-carboxylic acid] | 11 to 30 | 23 | 0.7 | < 1.3 | – | – | – | – | – | – | – | – |
| N#Cc1ccccc1CN1CC(C(=O)O)n2c1c(-c1cccc(C(F)(F)F)c1)c(Cc1cccc3ccccc13)c(Cl)c2=O (stereo not drawn) [Compound 165, 6-chloro-1-(2-cyanobenzyl)-7-(naphthalen-1-ylmethyl)-5-oxo-8-(3-(trifluoromethyl)phenyl)-1,2,3,5-tetrahydroimidazo[1,2-a]pyridine-3-carboxylic acid] | 11 to 30 | 30 | 0.8 | < 1.3 | – | – | – | – | – | – | – | – |
| CC(C)(C)c1ccc(CCN2CC(C(=O)O)n3c2c(-c2cccc(C(F)(F)F)c2)c(Cc2cccc4ccccc24)c(Cl)c3=O)cc1 (stereo not drawn) [Compound 239, 1-(4-(tert-butyl)phenethyl)-6-chloro-7-(naphthalen-1-ylmethyl)-5-oxo-8-(3-(trifluoromethyl)phenyl)-1,2,3,5-tetrahydroimidazo[1,2-a]pyridine-3-carboxylic acid] | 31 to 60 | 58 | 0.6 | < 1.3 | – | – | – | – | – | – | – | – |
| COc1cc(Cc2c(-c3cccc(C(F)(F)F)c3)c3n(c(=O)c2Cl)C(C(=O)O)CN3Cc2ccccc2)c2ccccc2c1 (stereo not drawn) [Compound 234, 1-benzyl-6-chloro-7-((3-methoxynaphthalen-1-yl)methyl)-5-oxo-8-(3-(trifluoromethyl)phenyl)-1,2,3,5-tetrahydroimidazo[1,2-a]pyridine-3-carboxylic acid] | > 60 | 70 | 0.4 | < 1.3 | – | – | – | – | – | – | – | – |
| N#Cc1ccc(CN2CC(C(=O)O)n3c2c(-c2cccc(C(F)(F)F)c2)c(Cc2cccc4ccccc24)c(Cl)c3=O)cc1 (stereo not drawn) [Compound 171, 6-chloro-1-(4-cyanobenzyl)-7-(naphthalen-1-ylmethyl)-5-oxo-8-(3-(trifluoromethyl)phenyl)-1,2,3,5-tetrahydroimidazo[1,2-a]pyridine-3-carboxylic acid] | 31 to 60 | 32 | 1.1 | < 1.3 | – | – | – | – | – | – | – | – |
| O=C(O)C1CN(CCc2cccc3ccccc23)c2c(-c3cccc(C(F)(F)F)c3)c(Cc3cccc4ccccc34)c(Cl)c(=O)n21 (stereo not drawn) [Compound 238, 6-chloro-1-(2-(naphthalen-1-yl)ethyl)-7-(naphthalen-1-ylmethyl)-5-oxo-8-(3-(trifluoromethyl)phenyl)-1,2,3,5-tetrahydroimidazo[1,2-a]pyridine-3-carboxylic acid] | > 60 | 94 | 0.7 | < 1.3 | – | – | – | – | – | – | – | – |
| COc1cc(Cc2cc(=O)n3c(c2-c2cccc(C(F)(F)F)c2)N(Cc2ccccc2)CC3C(=O)O)c2ccccc2c1 (stereo not drawn) [Compound 233, 1-benzyl-7-((3-methoxynaphthalen-1-yl)methyl)-5-oxo-8-(3-(trifluoromethyl)phenyl)-1,2,3,5-tetrahydroimidazo[1,2-a]pyridine-3-carboxylic acid] | 31 to 60 | 50 | 0.6 | < 1.3 | – | – | – | – | – | – | – | – |
| O=C(O)C1CN(CCCCCCN2CC(C(=O)O)n3c(c(-c4cccc(C(F)(F)F)c4)c(Cc4cccc5ccccc45)cc3=O)S2(=O)=O)S(=O)(=O)c2c(-c3cccc(C(F)(F)F)c3)c(Cc3cccc4ccccc34)cc(=O)n21 (racemic) [Compound 043, 2,2′-(hexane-1,6-diyl)bis(8-(naphthalen-1-ylmethyl)-6-oxo-9-(3-(trifluoromethyl)phenyl)-3,4-dihydro-2H,6H-pyrido[1,2-e][1,2,5]thiadiazine-4-carboxylic acid 1,1-dioxide)] | – | – | 0.7 | – | 72 | > 60 | < 1.3 | – | – | – | – | – |
| COc1ccccc1CN1CC(C(=O)O)n2c1c(-c1cccc(C(F)(F)F)c1)c(Cc1cccc3ccccc13)c(Cl)c2=O (stereo not drawn) [Compound 195, 6-chloro-1-(2-methoxybenzyl)-7-(naphthalen-1-ylmethyl)-5-oxo-8-(3-(trifluoromethyl)phenyl)-1,2,3,5-tetrahydroimidazo[1,2-a]pyridine-3-carboxylic acid] | 31 to 60 | 45 | 1.8 | 1.3 to 4.5 | – | – | – | – | – | – | – | – |
| CN1CC(C(=O)O)n2c(c(-c3cccc(C(F)(F)F)c3)c(Cc3cccc4ccccc34)cc2=O)S1(=O)=O (single isomer, unassigned) [Compound 008a, 2-methyl-8-(naphthalen-1-ylmethyl)-6-oxo-9-(3-(trifluoromethyl)phenyl)-3,4-dihydro-2H,6H-pyrido[1,2-e][1,2,5]thiadiazine-4-carboxylic acid 1,1-dioxide] | – | – | – | – | 16 | – | – | > 60 | 71 | 31 to 60 | 38 | (+) ((+) represents 11 to 30) |
